Test results from patent US12662470B2, “Hydroxy and (halo)alkoxy substituted tetrahydrofurans as modulators of sodium channels” (VERTEX PHARMACEUTICALS INCORPORATED, priority 2021, dated 2026).

Each compound was assayed against human NaV 1.8 (Homo sapiens, UniProt Q9Y5Y9) (assay: E-VIPR Assay Detecting and Measuring NaV Inhibition Properties). Details: HEK cells expressing a truncated form of human NaV 1.8; compound number without "*" (not marked as run in the presence of human serum).
Assay type: cell-based
Excerpt: Sodium ion channels are voltage-dependent proteins that can be activated by inducing membrane voltage changes by applying electric fields. The electrical stimulation instrument and methods of use, referred to as E-VIPR, are described in International Publication No. WO 2002/008748 A3 and C.-J. Huang et al. Characterization of voltage-gated sodium channel blockers by electrical stimulation and fluorescence detection of membrane potential, 24 Nature Biotech. 439-46 (2006), both of which are incorporated by reference in their entirety. The instrument comprises a microtiter plate handler, an optical system for exciting the coumarin dye while simultaneously recording the coumarin and oxonol emissions, a waveform generator, a current- or voltage-controlled amplifier, and parallel electrode pairs that are inserted into assay plate wells. Under integrated computer control, this instrument passes user-programmed electrical stimulus protocols to cells within the wells of the microtiter plate.
16-20 hours prior to running the assay on E-VIPR, HEK cells expressing a truncated form of human NaV 1.8 with full channel activity were seeded into microtiter 384-well plates, pre-coated with matrigel, at a density of 25,000 cells per well. 2.5-5% KIR2.1 Bacmam virus was added to the final cell suspension before seeding into cell plates. HEK cells were grown in Dulbecco's Modified Eagle's Medium (DMEM) supplemented with 10% FBS (Fetal Bovine Serum, qualified; Sigma #F4135), 1% NEAA (Non-Essential Amino Acids, Gibco #11140), 1% HEPES (Gibco #15630), 1% Pen-Strep (Penicillin-Streptomycin; Gibco #15140) and 5 μg/ml Blasticidin (Gibco #R210-01). Cells were expanded in vented cap cell culture flasks, with 90-95% humidity and 5% CO2.
Reagents and Stock Solutions:
• 100 mg/mL Pluronic F-127 (Sigma #P2443), in dry DMSO • Compound Plates: Corning 384-well Polypropylene Round Bottom #3656 • Cell Plates: 384-well tissue culture treated plates (Greiner #781091-2B)
2.5-5% KIR 2.1 Bacmam virus (produced in-house), prepared as described in Section 3.3 of J. A. Fornwald et al., Gene Expression in Mammalian Cells Using BacMam, a Modified Baculovirus System, 1350 Methods in Molecular Biology 95-116 (2016), the entire contents of which are incorporated by reference. The concentration used can be dependent on viral titer of each batch.
5 mM DiSBAC6(3), a voltage sensitive oxonol acceptor (CAS number 169211-44-3; 5-[3-(1,3-dihexylhexahydro-4,6-dioxo-2-thioxo-5-pyrimidinyl)-2-propen-1-ylidene]-1,3-dihexyldihydro-2-thioxo-4,6(1H,5H)-pyrimidinedione), in dry DMSO. The preparation of DiSBAC6(3) is analogous to that of DiSBAC4(3) as described in Voltage Sensing by Fluorescence Resonance Energy Transfer in Single Cells, Gonzalez, J. E. and Tsien, R. Y. (1995) Biophys. J. 69, 1272-1280.
5 mM CC2-DMPE, a commercially available membrane-bound coumarin phospholipid FRET donor (ThermoFisher Scientific catalog number K1017, CAS number 393782-57-5; tetradecanoic acid, 1,1′-[(1R)-1-[8-(6-chloro-7-hydroxy-2-oxo-2H-1-benzopyran-3-yl)-3-hydroxy-3-oxido-8-oxo-2,4-dioxa-7-aza-3-phosphaoct-1-yl]-1,2-ethanediyl] ester) was prepared in dry DMSO. See also, Improved indicators of cell membrane potential that use fluorescence resonance energy transfer, Gonzalez, J. E. and Tsien, R. Y. (1997) Chem. Biol. 4, 269-277.
Voltage Assay Background Suppression Compound (VABSC-1) is prepared in H2O (89-363 mM, range used to maintain solubility)
Human Serum (HS, Millipore #S1P1-01KL, or Sigma SLBR5469V and SLBR5470V as a 50%/50% mixture, for 25% assay final concentration)
• Sodium Chloride 160 mM (9.35 g/L), Potassium Chloride, 4.5 mM (0.335 g/L), Glucose 10 mM (1.8 g/L), Magnesium Chloride (Anhydrous) 1 mM (0.095 g/L), Calcium Chloride 2 mM (0.222 g/L), HEPES 10 mM (2.38 g/L) in water. […]

Sequence of human NaV 1.8 (Q9Y5Y9 126-1722 limits assumed): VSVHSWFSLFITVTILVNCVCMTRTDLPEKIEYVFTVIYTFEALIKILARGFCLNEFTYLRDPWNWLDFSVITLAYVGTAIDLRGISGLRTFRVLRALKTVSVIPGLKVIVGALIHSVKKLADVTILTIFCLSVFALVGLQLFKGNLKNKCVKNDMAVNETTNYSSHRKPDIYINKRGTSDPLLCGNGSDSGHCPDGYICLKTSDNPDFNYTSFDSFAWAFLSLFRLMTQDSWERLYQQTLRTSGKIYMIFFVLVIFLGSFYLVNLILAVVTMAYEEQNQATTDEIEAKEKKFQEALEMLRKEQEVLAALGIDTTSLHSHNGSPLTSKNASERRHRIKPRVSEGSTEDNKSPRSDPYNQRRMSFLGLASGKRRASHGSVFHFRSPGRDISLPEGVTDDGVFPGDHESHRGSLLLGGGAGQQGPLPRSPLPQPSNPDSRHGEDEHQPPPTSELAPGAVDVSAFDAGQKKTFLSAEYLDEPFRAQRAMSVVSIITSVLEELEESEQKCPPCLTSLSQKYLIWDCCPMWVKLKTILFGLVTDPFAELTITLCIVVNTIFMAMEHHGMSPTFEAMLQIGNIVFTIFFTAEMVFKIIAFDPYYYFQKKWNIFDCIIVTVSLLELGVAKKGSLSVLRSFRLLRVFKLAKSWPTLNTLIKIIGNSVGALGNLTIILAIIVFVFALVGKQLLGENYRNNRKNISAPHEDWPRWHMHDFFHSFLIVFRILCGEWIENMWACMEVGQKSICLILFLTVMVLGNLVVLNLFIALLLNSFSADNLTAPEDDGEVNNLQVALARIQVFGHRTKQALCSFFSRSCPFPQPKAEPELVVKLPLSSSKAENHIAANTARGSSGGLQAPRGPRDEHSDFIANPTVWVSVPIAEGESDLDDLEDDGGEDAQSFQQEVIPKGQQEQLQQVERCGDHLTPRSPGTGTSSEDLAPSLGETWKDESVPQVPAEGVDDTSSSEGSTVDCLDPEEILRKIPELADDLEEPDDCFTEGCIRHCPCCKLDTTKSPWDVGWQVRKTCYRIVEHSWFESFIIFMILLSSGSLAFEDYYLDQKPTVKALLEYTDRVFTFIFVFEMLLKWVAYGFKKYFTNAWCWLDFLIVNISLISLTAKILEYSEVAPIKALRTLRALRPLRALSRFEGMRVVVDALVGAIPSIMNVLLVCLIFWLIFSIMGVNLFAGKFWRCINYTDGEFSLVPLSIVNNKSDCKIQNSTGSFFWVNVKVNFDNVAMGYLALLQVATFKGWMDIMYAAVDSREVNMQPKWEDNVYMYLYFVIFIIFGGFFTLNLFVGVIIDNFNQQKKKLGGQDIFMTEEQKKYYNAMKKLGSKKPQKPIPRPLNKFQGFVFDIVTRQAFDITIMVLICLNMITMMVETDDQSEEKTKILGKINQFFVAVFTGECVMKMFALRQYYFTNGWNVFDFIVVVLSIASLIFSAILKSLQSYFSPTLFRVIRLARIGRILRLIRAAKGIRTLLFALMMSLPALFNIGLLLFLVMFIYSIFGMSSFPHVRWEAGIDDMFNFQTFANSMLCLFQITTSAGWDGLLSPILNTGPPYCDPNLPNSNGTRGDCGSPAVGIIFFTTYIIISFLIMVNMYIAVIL

`COc1c([C@@H]2[C@H](OC(C)C)[C@H](C)O[C@H]2C(=O)Nc2ccc([C@@H](O)CO)nc2)ccc(F)c1F` [Compound 16, (2R,3R,4S,5S)-3-(3,4-difluoro-2-methoxyphenyl)-N-(6-((R)-1,2-dihydroxyethyl)pyridine-3-yl)-4-isopropoxy-5-methyltetrahydrofuran-2-carboxamide] and `COc1c([C@@H]2[C@H](OC(C)C)[C@H](C)O[C@H]2C(=O)Nc2ccc(CO)nc2)ccc(F)c1F` [Compound 17, (2R,3R,4S,5S)-3-(3,4-difluoro-2-methoxyphenyl)-N-(6-(hydroxymethyl)pyridin-3-yl)-4-isopropoxy-5-methyltetrahydrofuran-2-carboxamide] cannot be ordered by IC50: no less than 1000 nM for the first, no less than 1000 nM for the second.

`COc1c([C@@H]2[C@H](OC)[C@H](C(C)C)O[C@H]2C(=O)Nc2ccnc(C(N)=O)c2)ccc(F)c1F` [Compound 24, 4-((2R,3R,4S,5S)-3-(3,4-difluoro-2-methoxyphenyl)-5-isopropyl-4-methoxytetrahydrofuran-2-carboxamido)picolinamide] and `CCO[C@H]1[C@@H](c2ccc(F)c(F)c2OC)[C@H](C(=O)Nc2ccnc(C(N)=O)c2)O[C@@]1(C)C(F)(F)F` [Compound 25, 4-((2R,3R,4S,5R)-3-(3,4-difluoro-2-methoxyphenyl)-4-ethoxy-5-methyl-5-(trifluoromethyl)tetrahydrofuran-2-carboxamido)picolinamide] cannot be ordered by IC50: less than 10 nM for the first, less than 10 nM for the second.
